# How the values were obtained:
# SK-BR-3 = test: Cytotoxicity against human SK-BR-3 cells incubated for 144 hrs by CellTiter-Glo luminescent assay; assay type: functional, cell-based; settings: SK-BR-3, 144 h
# SK-MEL-28 = test: Cytotoxicity against human SK-MEL-28 cells assessed as cell growth inhibition by measuring lethal concentration by MTT assay; assay type: functional; settings: read-out: LC50 (the source's name)
# KM12 = test: Cytotoxicity against human KM12 cells assessed as cell growth inhibition by measuring lethal concentration by MTT assay; assay type: functional; settings: read-out: LC50 (the source's name)
# COLO 205 = test: Cytotoxicity against human COLO 205 cells assessed as cell growth inhibition by measuring lethal concentration by MTT assay; assay type: functional; settings: read-out: LC50 (the source's name)
# NCI-H226 = test: Cytotoxicity against human NCI-H226 cells assessed as cell growth inhibition by measuring lethal concentration by MTT assay; assay type: functional; settings: read-out: LC50 (the source's name)
# IGROV-1 = test: Cytotoxicity against human IGROV-1 cells assessed as cell growth inhibition by measuring lethal concentration by MTT assay; assay type: functional; settings: read-out: LC50 (the source's name)
# UO-31 = test: Cytotoxicity against human UO-31 cells assessed as cell growth inhibition by measuring lethal concentration by MTT assay; assay type: functional; settings: read-out: LC50 (the source's name)
# M14 = test: Cytotoxicity against human M14 cells assessed as cell growth inhibition by measuring lethal concentration by MTT assay; assay type: functional; settings: read-out: LC50 (the source's name)
# OVCAR-8 = test: Cytotoxicity against human OVCAR-8 cells assessed as cell growth inhibition by measuring lethal concentration by MTT assay; assay type: functional; settings: read-out: LC50 (the source's name)
# [1] = Cytotoxicity against human […] cells assessed as cell growth inhibition by measuring lethal concentration by MTT assay; assay type: functional; settings: read-out: LC50 (the source's name)
# HL-60 = test: Cytotoxicity against human HL-60 cells assessed as cell growth inhibition by measuring lethal concentration by MTT assay; assay type: functional; settings: read-out: LC50 (the source's name)
# UACC-62 = test: Cytotoxicity against human UACC-62 cells assessed as cell growth inhibition by measuring lethal concentration by MTT assay; assay type: functional; settings: read-out: LC50 (the source's name)
# ACHN = test: Cytotoxicity against human ACHN cells assessed as cell growth inhibition by measuring lethal concentration by MTT assay; assay type: functional; settings: read-out: LC50 (the source's name)
# MOLT-4 = test: Cytotoxicity against human MOLT-4 cells assessed as cell growth inhibition by measuring lethal concentration by MTT assay; assay type: functional; settings: read-out: LC50 (the source's name)
# MDA-MB-435 = test: Cytotoxicity against human MDA-MB-435 cells assessed as cell growth inhibition by measuring lethal concentration by MTT assay; assay type: functional; settings: read-out: LC50 (the source's name)
# NCI-H460 = test: Cytotoxicity against human NCI-H460 cells assessed as cell growth inhibition by measuring lethal concentration by MTT assay; assay type: functional; settings: read-out: LC50 (the source's name)
# EKVX = test: Cytotoxicity against human EKVX cells assessed as cell growth inhibition by measuring lethal concentration by MTT assay; assay type: functional; settings: read-out: LC50 (the source's name)
# CCRF-CEM = test: Cytotoxicity against human CCRF-CEM cells assessed as cell growth inhibition by measuring lethal concentration by MTT assay; assay type: functional; settings: read-out: LC50 (the source's name)
# NCI/ADR-RES = test: Cytotoxicity against human MCF7ADR cells assessed as cell growth inhibition by measuring lethal concentration by MTT assay; assay type: functional; settings: read-out: LC50 (the source's name)
# Malme-3M = test: Cytotoxicity against human Malme-3M cells assessed as cell growth inhibition by measuring lethal concentration by MTT assay; assay type: functional; settings: read-out: LC50 (the source's name)
# Hs-578T = test: Cytotoxicity against human Hs-578T cells assessed as cell growth inhibition by measuring lethal concentration by MTT assay; assay type: functional; settings: read-out: LC50 (the source's name)
# A549 = test: Cytotoxicity against human A549 cells assessed as cell growth inhibition by measuring lethal concentration by MTT assay; assay type: functional; settings: read-out: LC50 (the source's name)
# TK-10 = test: Cytotoxicity against human TK-10 cells assessed as cell growth inhibition by measuring lethal concentration by MTT assay; assay type: functional; settings: read-out: LC50 (the source's name)
# SF-268 = test: Cytotoxicity against human SF-268 cells assessed as cell growth inhibition by measuring lethal concentration by MTT assay; assay type: functional; settings: read-out: LC50 (the source's name)
# RPMI-8226 = test: Cytotoxicity against human RPMI-8226 cells assessed as cell growth inhibition by measuring lethal concentration by MTT assay; assay type: functional; settings: read-out: LC50 (the source's name)
# BT-549 = test: Cytotoxicity against human BT-549 cells assessed as cell growth inhibition by measuring lethal concentration by MTT assay; assay type: functional; settings: read-out: LC50 (the source's name)
# SF-295 = test: Cytotoxicity against human SF-295 cells assessed as cell growth inhibition by measuring lethal concentration by MTT assay; assay type: functional; settings: read-out: LC50 (the source's name)
# HOP-92 = test: Cytotoxicity against human HOP-92 cells assessed as cell growth inhibition by measuring lethal concentration by MTT assay; assay type: functional; settings: read-out: LC50 (the source's name)
# NCI-H522 = test: Cytotoxicity against human NCI-H522 cells assessed as cell growth inhibition by measuring lethal concentration by MTT assay; assay type: functional; settings: read-out: LC50 (the source's name)
# SK-OV-3 = test: Cytotoxicity against human SK-OV-3 cells assessed as cell growth inhibition by measuring lethal concentration by MTT assay; assay type: functional; settings: read-out: LC50 (the source's name)
# HCC 2998 = test: Cytotoxicity against human HCC 2998 cells assessed as cell growth inhibition by measuring lethal concentration by MTT assay; assay type: functional; settings: read-out: LC50 (the source's name)
# SNB-19 = test: Cytotoxicity against human SNB-19 cells assessed as cell growth inhibition by measuring lethal concentration by MTT assay; assay type: functional; settings: read-out: LC50 (the source's name)
# SK-MEL-5 = test: Cytotoxicity against human SK-MEL-5 cells assessed as cell growth inhibition by measuring lethal concentration by MTT assay; assay type: functional; settings: read-out: LC50 (the source's name)
# SF-539 = test: Cytotoxicity against human SF-539 cells assessed as cell growth inhibition by measuring lethal concentration by MTT assay; assay type: functional; settings: read-out: LC50 (the source's name)
# OVCAR-3 = test: Cytotoxicity against human OVCAR-3 cells assessed as cell growth inhibition by measuring lethal concentration by MTT assay; assay type: functional; settings: read-out: LC50 (the source's name)
# U-251 = test: Cytotoxicity against human U-251 cells assessed as cell growth inhibition by measuring lethal concentration by MTT assay; assay type: functional; settings: read-out: LC50 (the source's name)
# 786-0 = test: Cytotoxicity against human 786-0 cells assessed as cell growth inhibition by measuring lethal concentration by MTT assay; assay type: functional; settings: read-out: LC50 (the source's name)
# DU-145 = test: Cytotoxicity against human DU-145 cells assessed as cell growth inhibition by measuring lethal concentration by MTT assay; assay type: functional; settings: read-out: LC50 (the source's name)
# HCT-15 = test: Cytotoxicity against human HCT-15 cells assessed as cell growth inhibition by measuring lethal concentration by MTT assay; assay type: functional; settings: read-out: LC50 (the source's name)
# OVCAR-4 = test: Cytotoxicity against human OVCAR-4 cells assessed as cell growth inhibition by measuring lethal concentration by MTT assay; assay type: functional; settings: read-out: LC50 (the source's name)
# HT-29 = test: Cytotoxicity against human HT-29 cells assessed as cell growth inhibition by measuring lethal concentration by MTT assay; assay type: functional; settings: read-out: LC50 (the source's name)
# CAKI-1 = test: Cytotoxicity against human CAKI-1 cells assessed as cell growth inhibition by measuring lethal concentration by MTT assay; assay type: functional; settings: read-out: LC50 (the source's name)
# SW-620 = test: Cytotoxicity against human SW620 cells assessed as cell growth inhibition by measuring lethal concentration by MTT assay; assay type: functional; settings: read-out: LC50 (the source's name)
# A498 = test: Cytotoxicity against human A498 cells assessed as cell growth inhibition by measuring lethal concentration by MTT assay; assay type: functional; settings: read-out: LC50 (the source's name)
# NCI-H23 = test: Cytotoxicity against human NCI-H23 cells assessed as cell growth inhibition by measuring lethal concentration by MTT assay; assay type: functional; settings: read-out: LC50 (the source's name)
# SK-MEL-2 = test: Cytotoxicity against human SK-MEL-2 cells assessed as cell growth inhibition by measuring lethal concentration by MTT assay; assay type: functional; settings: read-out: LC50 (the source's name)
# SN12C = test: Cytotoxicity against human SN12C cells assessed as cell growth inhibition by measuring lethal concentration by MTT assay; assay type: functional; settings: read-out: LC50 (the source's name)
# PC-3 = test: Cytotoxicity against human PC-3 cells assessed as cell growth inhibition by measuring lethal concentration by MTT assay; assay type: functional; settings: read-out: LC50 (the source's name)
# HOP-62 = test: Cytotoxicity against human HOP-62 cells assessed as cell growth inhibition by measuring lethal concentration by MTT assay; assay type: functional; settings: read-out: LC50 (the source's name)
# HCT-116 = test: Cytotoxicity against human HCT-116 cells assessed as cell growth inhibition by measuring lethal concentration by MTT assay; assay type: functional; settings: read-out: LC50 (the source's name)
# SNB-75 = test: Cytotoxicity against human SNB-75 cells assessed as cell growth inhibition by measuring lethal concentration by MTT assay; assay type: functional; settings: read-out: LC50 (the source's name)
# UACC-257 = test: Cytotoxicity against human UACC-257 cells assessed as cell growth inhibition by measuring lethal concentration by MTT assay; assay type: functional; settings: read-out: LC50 (the source's name)
# T47D = test: Cytotoxicity against human T47D cells assessed as cell growth inhibition by measuring lethal concentration by MTT assay; assay type: functional; settings: read-out: LC50 (the source's name)
# MDA-N = test: Cytotoxicity against human MDA-N cells assessed as cell growth inhibition by measuring lethal concentration by MTT assay; assay type: functional; settings: read-out: LC50 (the source's name)
# OVCAR-5 = test: Cytotoxicity against human OVCAR-5 cells assessed as cell growth inhibition by measuring lethal concentration by MTT assay; assay type: functional; settings: read-out: LC50 (the source's name)
# [2] = Cytotoxicity against human KPL-4 cells assessed as inhibition of cell growth incubated for 3 days by CellTiter-Glo luminescent assay; assay type: functional, cell-based; settings: KPL4, 72 h
structure (smiles),measurement,setting,value
Cc1cccc2c(O)cc3c(c12)[C@H](CCl)CN3C(=O)c1cn2cc(NC(=O)c3ccc(O)cc3)ccc2n1,IC50,SK-BR-3,0.09 nM
C=C1C[C@H]2C=Nc3cc(OCCCCCCCCCCOc4cc5c(cc4OC)C(=O)N4CC(=C)C[C@H]4C=N5)c(OC)cc3C(=O)N2C1,CC50,SK-MEL-28,0.14 nM
same,CC50,KM12,0.14 nM
same,CC50,COLO 205,0.14 nM
same,CC50,NCI-H226,0.14 nM
same,CC50,IGROV-1,0.14 nM
same,CC50,UO-31,0.14 nM
same,CC50,M14,0.14 nM
same,CC50,OVCAR-8,0.14 nM
same,CC50,[1],0.14 nM
same,CC50,HL-60,0.14 nM
same,CC50,UACC-62,0.14 nM
same,CC50,ACHN,0.14 nM
same,CC50,MOLT-4,0.14 nM
same,CC50,MDA-MB-435,0.14 nM
same,CC50,NCI-H460,0.14 nM
same,CC50,EKVX,0.14 nM
same,CC50,CCRF-CEM,0.14 nM
same,CC50,NCI/ADR-RES,0.14 nM
same,CC50,Malme-3M,0.14 nM
same,CC50,Hs-578T,0.14 nM
same,CC50,A549,0.14 nM
same,CC50,TK-10,0.14 nM
same,CC50,SF-268,0.14 nM
same,CC50,RPMI-8226,0.14 nM
same,CC50,BT-549,0.14 nM
same,CC50,SF-295,0.14 nM
same,CC50,HOP-92,0.14 nM
same,CC50,NCI-H522,0.14 nM
same,CC50,SK-OV-3,0.14 nM
same,CC50,HCC 2998,0.14 nM
same,CC50,SNB-19,0.14 nM
same,CC50,SK-MEL-5,0.14 nM
same,CC50,SF-539,0.14 nM
same,CC50,OVCAR-3,0.14 nM
same,CC50,U-251,0.14 nM
same,CC50,786-0,0.14 nM
same,CC50,DU-145,0.14 nM
same,CC50,HCT-15,0.14 nM
same,CC50,OVCAR-4,0.14 nM
same,CC50,HT-29,0.14 nM
same,CC50,CAKI-1,0.14 nM
same,CC50,SW-620,0.14 nM
same,CC50,A498,0.14 nM
same,CC50,NCI-H23,0.14 nM
same,CC50,SK-MEL-2,0.14 nM
same,CC50,SN12C,0.14 nM
same,CC50,PC-3,0.14 nM
same,CC50,HOP-62,0.14 nM
same,CC50,HCT-116,0.14 nM
same,CC50,SNB-75,0.14 nM
same,CC50,UACC-257,0.14 nM
same,CC50,T47D,0.14 nM
same,CC50,MDA-N,0.14 nM
same,CC50,OVCAR-5,0.14 nM
C=C1C[C@H]2C=Nc3cc(OCCCCCOc4cc5c(cc4OC)C(=O)N4CC(=C)C[C@H]4C(O)N5C(=O)OCc4ccc(SSC(C)(C)C)cc4)c(OC)cc3C(=O)N2C1 (stereo partly specified),IC50,[2],6.3 ng/mL

# — ChEMBL document CHEMBL5608211, “Antibody-drug conjugates for targeted cancer therapy: Recent advances in potential payloads” (Eur J Med Chem, 2024)
